Columns and labels:
[1] = test system: various cancer cell lines; assay: 11×7 synergism hit rate over all cell lines (by algorism); assay type: cell-based; conditions: for % Hit rate: combination with SR16388, identified by algorism, all cell lines; for interaction with SR16388 in 11×7 experiments: in combination with SR16388
Description: (§1) SR16388 was synthesized in house.
(§2) Within the same type of cancer cells, some cell lines have more synergistic hits than others. Melanoma and breast cancer cell lines had the highest hit rate.

HOP92 = assay: 11×7 synergism hit rate; assay type: cell-based; conditions: NSCLC HOP92, combination with SR16388
Description: as §1, §2

SF268 = assay: 11×7 synergism hit rate; assay type: cell-based; conditions: CNS Cancer SF268, combination with SR16388
Description: as §1, §2

HCT15 = assay: 11×7 synergism hit rate; assay type: cell-based; conditions: Colon Cancer HCT15, combination with SR16388
Description: as §1, §2

NCIH522 = assay: 11×7 synergism hit rate; assay type: cell-based; conditions: NSCLC NCIH522, combination with SR16388
Description: as §1, §2

SF295 = assay: 11×7 synergism hit rate; assay type: cell-based; conditions: CNS Cancer SF295, combination with SR16388
Description: as §1, §2

RPMI8226 = assay: 11×7 synergism hit rate; assay type: cell-based; conditions: Leukemia RPMI8226, combination with SR16388
Description: as §1, §2

IGROV1 = assay: 11×7 synergism hit rate; assay type: cell-based; conditions: Ovarian Cancer IGROV1, combination with SR16388
Description: as §1, §2

COLO205 = assay: 11×7 synergism hit rate; assay type: cell-based; conditions: Colon Cancer COLO205, combination with SR16388
Description: as §1, §2

HCC2998 = assay: 11×7 synergism hit rate; assay type: cell-based; conditions: Colon Cancer HCC2998, combination with SR16388
Description: as §1, §2

SN12C = assay: 11×7 synergism hit rate; assay type: cell-based; conditions: Renal Cancer SN12C, combination with SR16388
Description: as §1, §2

HL60 = assay: 11×7 synergism hit rate; assay type: cell-based; conditions: Leukemia HL60, combination with SR16388
Description: as §1, §2

UACC62 = assay: 11×7 synergism hit rate; assay type: cell-based; conditions: Melanoma UACC62, combination with SR16388
Description: as §1, §2

MDAMB435 = assay: 11×7 synergism hit rate; assay type: cell-based; conditions: Melanoma MDAMB435, combination with SR16388
Description: as §1, §2

NCIH23 = assay: 11×7 synergism hit rate; assay type: cell-based; conditions: NSCLC NCIH23, combination with SR16388
Description: as §1, §2

U251 = assay: 11×7 synergism hit rate; assay type: cell-based; conditions: CNS Cancer U251, combination with SR16388
Description: as §1, §2

MDAMB231 = assay: 11×7 synergism hit rate; assay type: cell-based; conditions: Breast Cancer MDAMB231, combination with SR16388
Description: as §1, §2

NCIH322M = assay: 11×7 synergism hit rate; assay type: cell-based; conditions: NSCLC NCIH322M, combination with SR16388
Description: as §1, §2

SKMEL5 = assay: 11×7 synergism hit rate; assay type: cell-based; conditions: Melanoma SKMEL5, combination with SR16388
Description: as §1, §2

SKMEL28 = assay: 11×7 synergism hit rate; assay type: cell-based; conditions: Melanoma SKMEL28, combination with SR16388
Description: as §1, §2

PCS = assay: 11×7 synergism hit rate; assay type: cell-based; conditions: Prostate Cancer PCS, combination with SR16388
Description: as §1, §2

TK10 = assay: 11×7 synergism hit rate; assay type: cell-based; conditions: Renal Cancer TK10, combination with SR16388
Description: as §1, §2

DU145 = assay: 11×7 synergism hit rate; assay type: cell-based; conditions: Prostate Cancer DU145, combination with SR16388
Description: as §1, §2

T47D = assay: 11×7 synergism hit rate; assay type: cell-based; conditions: Breast Cancer T47D, combination with SR16388
Description: as §1, §2

SNB75 = assay: 11×7 synergism hit rate; assay type: cell-based; conditions: CNS Cancer SNB75, combination with SR16388
Description: as §1, §2

UACC257 = assay: 11×7 synergism hit rate; assay type: cell-based; conditions: Melanoma UACC257, combination with SR16388
Description: as §1, §2

HOP62 = assay: 11×7 synergism hit rate; assay type: cell-based; conditions: NSCLC HOP62, combination with SR16388
Description: as §1, §2

SR = assay: 11×7 synergism hit rate; assay type: cell-based; conditions: Leukemia SR, combination with SR16388
Description: as §1, §2

MCF7 = assay: 11×7 synergism hit rate; assay type: cell-based; conditions: Breast Cancer MCF7, combination with SR16388
Description: as §1, §2

CCRFCEM = assay: 11×7 synergism hit rate; assay type: cell-based; conditions: Leukemia CCRFCEM, combination with SR16388
Description: as §1, §2

ACHN = assay: 11×7 synergism hit rate; assay type: cell-based; conditions: Renal Cancer ACHN, combination with SR16388
Description: as §1, §2

NCIH460 = assay: 11×7 synergism hit rate; assay type: cell-based; conditions: NSCLC NCIH460, combination with SR16388
Description: as §1, §2

ADRRES = assay: 11×7 synergism hit rate; assay type: cell-based; conditions: Ovarian Cancer ADRRES, combination with SR16388
Description: as §1, §2

OVCAR8 = assay: 11×7 synergism hit rate; assay type: cell-based; conditions: Ovarian Cancer OVCAR8, combination with SR16388
Description: as §1, §2

BT549 = assay: 11×7 synergism hit rate; assay type: cell-based; conditions: Breast Cancer BT549, combination with SR16388
Description: as §1, §2

NCIH226 = assay: 11×7 synergism hit rate; assay type: cell-based; conditions: NSCLC NCIH226, combination with SR16388
Description: as §1, §2

7860 = assay: 11×7 synergism hit rate; assay type: cell-based; conditions: Renal Cancer 7860, combination with SR16388
Description: as §1, §2

[2] = test system: panel of 48 to 60 cell lines; assay: 5×4 combination screen with SR16388, CellTiter-Glo viability; synergy by pattern recognition; conditions: for no effect (number of cell lines) / synergy (number of cell lines) / % synergy: in combination with SR16388, 5x4-T1; for no effect (number of cell lines) / synergy (number of cell lines): pattern recognition, of 60 cell lines incl. no data; for % synergy: share of cell lines with data
Description: Cells were treated with compounds alone or in combination for three days and CellTiter-Glo® Luminescent Cell Viability Assay (Promega Corp.) was used as the endpoint to measure cell viability.
Cells were cultured in DMEM with 10% fetal bovine serum and used between passage 2 and passage 20. Cells were harvested on Day-1 (FIG. 1A) and re-supspended to the corresponding seeding density and seeded with Wellmate (ThermoFisher) to 384 plates (BD or GBO).
40 mM Compound stocks in 100% DMSO were made. Master plates were made with Janus (PerkinElmer), then further diluted and added to the cell plates with Matrix Platemate (Thermo) on Day 0.
CellTiter-Glo® Luminescent Cell Viability Assay (Promega Corp.) was used to measure ATP as an indicator of viable cells on Day 3 using Envision (PerkinElmer) and back up reader Analyst HT (MDS) and Gen5 (BioTek).
Single point, 5×4 checkque board platemap was used in the initial screening.
Relative Luminescent Units (RLU) were plotted against corresponding drug concentrations and fitted with standard four parameter sigmoidal curve with custom coded R program or Calcusyn (Biosoft, Cambridge, UK).

Structure (SMILES): CC[C@]1(O)C[C@H]2CN(CCc3c([nH]c4ccccc34)[C@@](C(=O)OC)(c3cc4c(cc3OC)N(C=O)[C@H]3[C@@](O)(C(=O)OC)[C@H](OC(C)=O)[C@]5(CC)C=CCN6CC[C@]43[C@@H]65)C2)C1 [Vincristine]
- % Hit rate [1]: 10.91%
- interaction with SR16388 in 11×7 experiments [1]: synergistic effect
- % Hit rate (HOP92): 8%
- % Hit rate (SF268): 18%
- % Hit rate (HCT15): 9%
- % Hit rate (NCIH522): 10%
- % Hit rate (SF295): 21%
- % Hit rate (RPMI8226): 0%
- % Hit rate (IGROV1): 8%
- % Hit rate (COLO205): 14%
- % Hit rate (HCC2998): 4%
- % Hit rate (SN12C): 14%
- % Hit rate (HL60): 5%
- % Hit rate (UACC62): 23%
- % Hit rate (MDAMB435): 6%
- % Hit rate (NCIH23): 4%
- % Hit rate (U251): 4%
- % Hit rate (MDAMB231): 17%
- % Hit rate (NCIH322M): 18%
- % Hit rate (SKMEL5): 14%
- % Hit rate (SKMEL28): 22%
- % Hit rate (PCS): 1%
- % Hit rate (TK10): 14%
- % Hit rate (DU145): 1%
- % Hit rate (T47D): 16%
- % Hit rate (SNB75): 9%
- % Hit rate (UACC257): 25%
- % Hit rate (HOP62): 0%
- % Hit rate (SR): 0%
- % Hit rate (MCF7): 25%
- % Hit rate (CCRFCEM): 8%
- % Hit rate (ACHN): 8%
- % Hit rate (NCIH460): 19%
- % Hit rate (ADRRES): 1%
- % Hit rate (OVCAR8): 10%
- % Hit rate (BT549): 9%
- % Hit rate (NCIH226): 8%
- % Hit rate 7860: 18%
- interaction with SR16388 in the screen of 30 cancer therapeutic agents [2]: Synergistic anti-proliferation
- no effect (number of cell lines) [2]: 19
- synergy (number of cell lines) [2]: 23
- % synergy [2]: 55%

Structure (SMILES): CC(=O)O[C@H]1C(=O)[C@@]2(C)[C@H]([C@H](OC(=O)c3ccccc3)[C@]3(O)C[C@H](OC(=O)[C@H](O)[C@@H](NC(=O)c4ccccc4)c4ccccc4)C(C)=C1C3(C)C)[C@]1(OC(C)=O)CO[C@@H]1C[C@@H]2O [Paclitaxel]
- % Hit rate [1]: 14.88%
- interaction with SR16388 in 11×7 experiments [1]: synergistic effect
- % Hit rate (HOP92): 10%
- % Hit rate (SF268): 22%
- % Hit rate (HCT15): 14%
- % Hit rate (NCIH522): 10%
- % Hit rate (SF295): 8%
- % Hit rate (RPMI8226): 5%
- % Hit rate (IGROV1): 18%
- % Hit rate (COLO205): 17%
- % Hit rate (HCC2998): 12%
- % Hit rate (SN12C): 13%
- % Hit rate (HL60): 25%
- % Hit rate (UACC62): 25%
- % Hit rate (MDAMB435): 12%
- % Hit rate (NCIH23): 4%
- % Hit rate (U251): 12%
- % Hit rate (MDAMB231): 21%
- % Hit rate (NCIH322M): 17%
- % Hit rate (SKMEL5): 12%
- % Hit rate (SKMEL28): 35%
- % Hit rate (PCS): 0%
- % Hit rate (TK10): 13%
- % Hit rate (DU145): 3%
- % Hit rate (T47D): 19%
- % Hit rate (SNB75): 13%
- % Hit rate (UACC257): 35%
- % Hit rate (HOP62): 1%
- % Hit rate (SR): 1%
- % Hit rate (MCF7): 31%
- % Hit rate (CCRFCEM): 14%
- % Hit rate (ACHN): 14%
- % Hit rate (NCIH460): 35%
- % Hit rate (ADRRES): 1%
- % Hit rate (OVCAR8): 13%
- % Hit rate (BT549): 3%
- % Hit rate (NCIH226): 27%
- % Hit rate 7860: 22%
- interaction with SR16388 in the screen of 30 cancer therapeutic agents [2]: Synergistic anti-proliferation
- no effect (number of cell lines) [2]: 18
- synergy (number of cell lines) [2]: 40
- % synergy [2]: 69%

Source: patent US20130123222A1, “Synergistic Anti-Cancer Activity of SR16388 with Anti-Mitotic Drugs” (SRI INTERNATIONAL, INC., priority 2011, published 2013)
